PubChem BioAssay AID328 (DTP/NCI, 2004)
Values joined by “and” are separate entries in the source; they are usually repeats but may differ in a detail not shown here. Identical values can stand only once. Toxic doses and inconclusive results are not listed. Residues, ends and D or L forms follow the SMILES beside them.

Test system: BDF1 mice, P388 leukemia ip, median survival T/C
Experiment: NCI In Vivo Anticancer Drug Screen. Data for tumor model P388 Leukemia (intraperitoneal) in B6D2F1 (BDF1) mice
Conditions: endpoint: median survival time, higher = longer survival
Procedure, shortened: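 Steps: implant the tumour, treat one group with compound and another with vehicle, record survival, then divide treated by control.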

[1] = dose: 100.0 mg/kg/injection, schedule: Q01DX009 (ip), vehicle: Klucel (hydroxypropylcellulose) (HPC)
[2] = dose: 100.0 mg/kg/injection, schedule: Q04DX003 (ip), vehicle: Klucel (hydroxypropylcellulose) (HPC)
[3] = dose: 200.0 mg/kg/injection, schedule: Q04DX003 (ip), vehicle: Klucel (hydroxypropylcellulose) (HPC)
[4] = dose: 50.0 mg/kg/injection, schedule: Q01DX009 (ip), vehicle: saline with Tween-80
[5] = dose: 100.0 mg/kg/injection, schedule: Q01DX009 (ip), vehicle: saline with Tween-80
[6] = dose: 200.0 mg/kg/injection, schedule: Q01DX009 (ip), vehicle: saline with Tween-80
[7] = dose: 25.0 mg/kg/injection, schedule: Q01DX009 (ip), vehicle: saline
[8] = dose: 25.0 mg/kg/injection, schedule: Q01DX009 (ip), vehicle: saline with Tween-80
[9] = dose: 100.0 mg/kg/injection, schedule: Q04DX003 (ip), vehicle: saline sonified
[10] = dose: 200.0 mg/kg/injection, schedule: Q04DX003 (ip), vehicle: saline sonified
[11] = dose: 12.5 mg/kg/injection, schedule: Q01DX009 (ip), vehicle: saline
[12] = dose: 3.0 mg/kg/injection, schedule: Q01DX009 (ip), vehicle: saline with Tween-80
[13] = dose: 6.0 mg/kg/injection, schedule: Q01DX009 (ip), vehicle: saline with Tween-80
[14] = dose: 12.5 mg/kg/injection, schedule: Q01DX009 (ip), vehicle: water
[15] = dose: 25.0 mg/kg/injection, schedule: Q01DX009 (ip), vehicle: water
[16] = dose: 50.0 mg/kg/injection, schedule: Q01DX009 (ip), vehicle: water
[17] = dose: 100.0 mg/kg/injection, schedule: Q01DX009 (ip), vehicle: water
[18] = dose: 200.0 mg/kg/injection, schedule: Q01DX009 (ip), vehicle: water
[19] = dose: 100.0 mg/kg/injection, schedule: Q04DX003 (ip), vehicle: saline
[20] = dose: 100.0 mg/kg/injection, schedule: Q04DX003 (ip), vehicle: saline with Tween-80
[21] = dose: 50.0 mg/kg/injection, schedule: Q01DX009 (ip), vehicle: saline
[22] = dose: 100.0 mg/kg/injection, schedule: Q01DX009 (ip), vehicle: saline

## COc1ccccc1NC(=O)c1ccc(Cl)cc1
[1]
  T/C: 100 % of control
[2]
  T/C: 100 % of control
dose: 200.0 mg/kg/injection, schedule: Q01DX009 (ip), vehicle: Klucel (hydroxypropylcellulose) (HPC)
  T/C: 100 % of control
[3]
  T/C: 100 % of control
dose: 400.0 mg/kg/injection, schedule: Q01DX009 (ip), vehicle: Klucel (hydroxypropylcellulose) (HPC)
  T/C: 104 % of control
dose: 400.0 mg/kg/injection, schedule: Q04DX003 (ip), vehicle: Klucel (hydroxypropylcellulose) (HPC)
  T/C: 109 % of control

## COc1ccc(N2CCN(c3ccc([N+](=O)[O-])c4no[n+]([O-])c34)CC2)cc1
dose: 15.0 mg/kg/injection, schedule: Q04DX003 (ip), vehicle: saline with Tween-80
  T/C: 101 % of control
dose: 30.0 mg/kg/injection, schedule: Q04DX003 (ip), vehicle: saline with Tween-80
  T/C: 100 % of control
dose: 60.0 mg/kg/injection, schedule: Q04DX003 (ip), vehicle: saline with Tween-80
  T/C: 104 % of control

## CCOC(=O)Cc1csc(NNC(=O)c2ccccc2)n1
[4]
  T/C: 108 % of control
[5]
  T/C: 99 % of control
[6]
  T/C: 101 % of control

## CN=C(N)c1ccc(N=C(N)c2ccc(N=C(N)c3ccc(N)cc3)cc2)cc1
dose: 16.0 mg/kg/injection, schedule: Q01DX009 (ip), vehicle: saline
  T/C: 227 % of control
[7]
  T/C: 245 % of control
dose: 35.0 mg/kg/injection, schedule: Q01DX009 (ip), vehicle: saline
  T/C: 195 % of control

## Cc1cc2c(c3ncccc13)OCN(Cc1ccc(Cl)cc1)C2
dose: 12.5 mg/kg/injection, schedule: Q01DX009 (ip), vehicle: saline with Tween-80
  T/C: 104 % of control
[8]
  T/C: 100 % of control
[4]
  T/C: 91 % of control

## N#CC(C#N)=Cc1ccc(Cl)c(Cl)c1
dose: 25.0 mg/kg/injection, schedule: Q01DX009 (ip), vehicle: Klucel (hydroxypropylcellulose) (HPC)
  T/C: 115 % of control
dose: 50.0 mg/kg/injection, schedule: Q01DX009 (ip), vehicle: Klucel (hydroxypropylcellulose) (HPC)
  T/C: 100 % of control
dose: 50.0 mg/kg/injection, schedule: Q04DX003 (ip), vehicle: Klucel (hydroxypropylcellulose) (HPC)
  T/C: 100 % of control
[1]
  T/C: 120 % of control
[2]
  T/C: 100 % of control

## COc1cc(OC)c(N=Cc2ccc3c(c2)OCO3)cc1Cl
[2]
  T/C: 100 % of control
[3]
  T/C: 100 % of control

## CC(=O)NC(O)C(Cl)(Cl)Cl (stereo not given)
[9]
  T/C: 91 % of control
[10]
  T/C: 108 % of control
dose: 400.0 mg/kg/injection, schedule: Q04DX003 (ip), vehicle: saline sonified
  T/C: 100 % of control

## C=CCN(CC=C)CCSC(=S)NCCOC
[4]
  T/C: 95 % of control
[5]
  T/C: 100 % of control
[6]
  T/C: 95 % of control

## OCCN1CCN(CC/C=C2/c3ccccc3Sc3ccc(Cl)cc32)CC1
dose: 5.56 mg/kg/injection, schedule: Q01DX009 (ip), vehicle: saline
  T/C: 108 % of control
dose: 8.33 mg/kg/injection, schedule: Q01DX009 (ip), vehicle: saline
  T/C: 108 % of control
[11]
  T/C: 120 % of control
[7]
  T/C: 113 % of control
dose: 33.0 mg/kg/injection, schedule: Q04DX003 (ip), vehicle: saline
  T/C: 150 % of control

## CC(=O)[O][Hg][c]1cc(-c2ccc(N=Nc3c(S(=O)(=O)O)cc4cccc(N)c4c3O)cc2)ccc1N=Nc1c(S(=O)(=O)O)cc2cccc(N)c2c1O
dose: 1.5 mg/kg/injection, schedule: Q01DX009 (ip), vehicle: saline with Tween-80
  T/C: 100 % of control
[12]
  T/C: 100 % of control
[13]
  T/C: 95 % of control

## NCCCCC(N)C(=O)NC(CCCN=C(N)N)C(=O)O (stereo not drawn) (H-Lys-Arg-OH; configuration not given here)
dose: 3.12 mg/kg/injection, schedule: Q01DX009 (ip), vehicle: water
  T/C: 101 % of control
dose: 6.25 mg/kg/injection, schedule: Q01DX009 (ip), vehicle: water
  T/C: 97 % of control and 99 % of control and 117 % of control
[14]
  T/C: 105 % of control and 109 % of control
[15]
  T/C: 101 % of control and 104 % of control and 118 % of control
[16]
  T/C: 93 % of control and 94 % of control and 95 % of control
[17]
  T/C: 90 % of control and 100 % of control and 113 % of control
[18]
  T/C: 109 % of control

## Cc1ccc(S(=O)(=O)CC#CCOc2ccccc2)cc1
dose: 50.0 mg/kg/injection, schedule: Q04DX003 (ip), vehicle: saline
  T/C: 100 % of control
[19]
  T/C: 100 % of control
dose: 200.0 mg/kg/injection, schedule: Q04DX003 (ip), vehicle: saline
  T/C: 104 % of control

## Nc1nc(=S)c2ncn(C3OC(COC(=O)c4ccccc4)C(OC(=O)c4ccccc4)C3OC(=O)c3ccccc3)c2[nH]1 (stereo not given)
dose: 13.2 mg/kg/injection, schedule: Q01DX009 (ip), vehicle: saline with Tween-80
  T/C: 120 % of control
dose: 33.0 mg/kg/injection, schedule: Q01DX009 (ip), vehicle: saline with Tween-80
  T/C: 154 % of control
dose: 75.0 mg/kg/injection, schedule: Q01DX009 (ip), vehicle: saline with Tween-80
  T/C: 90 % of control
[19]
  T/C: 163 % of control

## ON=C(Cc1ccccc1)Cc1ccccc1
[20]
  T/C: 100 % of control
dose: 200.0 mg/kg/injection, schedule: Q04DX003 (ip), vehicle: saline with Tween-80
  T/C: 109 % of control
dose: 400.0 mg/kg/injection, schedule: Q04DX003 (ip), vehicle: saline with Tween-80
  T/C: 109 % of control

## CCOC(=O)CCc1nn(C)c2ccc(CC)cc2c1=O
[4]
  T/C: 101 % of control
[5]
  T/C: 92 % of control
[6]
  T/C: 90 % of control

## CCCCCCCCCCCCCCCOc1ccc(C)cc1
dose: 50.0 mg/kg/injection, schedule: Q04DX003 (ip), vehicle: saline sonified
  T/C: 90 % of control
[9]
  T/C: 100 % of control
[10]
  T/C: 90 % of control

## CCN(CC)CCCCCNc1cc(Cl)c(Cl)cc1[N+](=O)[O-]
[21]
  T/C: 111 % of control
[22]
  T/C: 100 % of control

## ClCCCCCCCCc1ccccc1
[11]
  T/C: 102 % of control
[7]
  T/C: 100 % of control
dose: 44.0 mg/kg/injection, schedule: Q04DX003 (ip), vehicle: saline with Tween-80
  T/C: 122 % of control
[21]
  T/C: 107 % of control
dose: 66.0 mg/kg/injection, schedule: Q04DX003 (ip), vehicle: saline with Tween-80
  T/C: 100 % of control
[22]
  T/C: 100 % of control
[20]
  T/C: 118 % of control
dose: 200.0 mg/kg/injection, schedule: Q01DX009 (ip), vehicle: saline
  T/C: 108 % of control

## CC[N-]c1nnnn1CC.[Au+].c1ccc([PH+](c2ccccc2)c2ccccc2)cc1
dose: 12.5 mg/kg/injection, schedule: Q01DX001 (ip), vehicle: saline with Tween-80
  T/C: 100 % of control
dose: 25.0 mg/kg/injection, schedule: Q01DX001 (ip), vehicle: saline with Tween-80
  T/C: 111 % of control

## Cc1cn(C)c2nccnc12
[14]
  T/C: 100 % of control
dose: 12.5 mg/kg/injection, schedule: Q04DX003 (ip), vehicle: water
  T/C: 102 % of control
[15]
  T/C: 107 % of control
dose: 25.0 mg/kg/injection, schedule: Q04DX003 (ip), vehicle: water
  T/C: 96 % of control
[16]
  T/C: 98 % of control
dose: 50.0 mg/kg/injection, schedule: Q04DX003 (ip), vehicle: water
  T/C: 112 % of control
[17]
  T/C: 100 % of control
dose: 100.0 mg/kg/injection, schedule: Q04DX003 (ip), vehicle: water
  T/C: 117 % of control
[18]
  T/C: 104 % of control
dose: 200.0 mg/kg/injection, schedule: Q04DX003 (ip), vehicle: water
  T/C: 98 % of control
dose: 300.0 mg/kg/injection, schedule: Q04DX003 (ip), vehicle: water
  T/C: 94 % of control

## Oc1cccc2c1[O][Sb][O]2
[12]
  T/C: 102 % of control
[13]
  T/C: 110 % of control
dose: 11.0 mg/kg/injection, schedule: Q04DX003 (ip), vehicle: saline with Tween-80
  T/C: 112 % of control
dose: 16.5 mg/kg/injection, schedule: Q04DX003 (ip), vehicle: saline with Tween-80
  T/C: 112 % of control
[8]
  T/C: 110 % of control
